Measurements published in US12054498B2, “Heteroaromatic macrocyclic ether chemotherapeutic agents” (Nuvalent, Inc., priority 2020, dated 2024).
pIC50: −log10 of the molar value.

Columns and labels:
Format in all cases: cell-based
[1] = biological target: T1, Ba/F3 cells EML4-ALK wt (variant 1) (Homo sapiens, UniProt Q9UM73); assay: Ba/F3 cell proliferation assay, EML4-ALK wt (variant 1); conditions: 72 hours, CellTiter-Glo
T1 construct: echinoderm microtubule-associated protein-like 4 (EML4) gene and the ALK tyrosine kinase domain; host or cells: Ba/F3 (RIKEN), retroviral pMSCV-puro; the other entry of the earlier key: EML4 (Q9HC35, Echinoderm microtubule-associated protein-like 4)
From the text: (§1) Genes encoding CD74-ROS1 wild-type (wt), CD74-ROS1 G2032R, CD74-ROS1 S1986F, CD74-ROS1 L2026M, CD74-ROS1 D2033N, EML4-ALK wt (variant 1), EML4-ALK G1202R (variant 1), EML4-ALK L1196M/G1202R (variant 1), EML4-ALK G1202R/G1269A (variant 1), EML4-ALK G1202R/L1198F (variant 1), and TPM3-TRKA were synthesized at GeneRay, cloned into the retroviral construct pMSCV-puro (Biovector), and packaged into retroviral particles. The virus was used to infect Ba/F3 cells (RIKEN) at multiplicity of infection=1 for 1 day. Infected cells were rescued in media (RPMI-1640 with 10% fetal bovine serum and 1% streptomycin and penicillin) supplemented with mouse IL-3 (10 ng/mL) for 2 days, and stable cell lines were selected by IL-3 withdrawal and puromycin (0.8 μg/mL) for 7 days. Monoclones were selected by single-cell dilution in IL-3-free medium containing puromycin (0.8 μg/mL). Transformation of desired genes was confirmed by Sanger sequencing and western blot using the following antibodies: ROS1 (CST #3287), ALK (CST #3633), and pan-TRK (Abcam #76291).
(§2) Cell Proliferation Assay Stable cells were plated at 1,000 cells/well (40 μL) in a 384-well plate for 1 day.
(§3) Test compounds (40 nL) were then added in a 3-fold dilution series using the TECAN EVO200 liquid handler and incubated for 72 hours. Plates were equilibrated at room temperature for 15 minutes followed by addition of 40 μL CellTiter-Glo reagent (Promega).
(§4) Luminescence was measured on a plate reader. Half-maximal inhibitory concentration (IC50) was calculated from percent inhibition and inhibitor concentration using four-parameter logistic regression. […] (nd=not determined).

[2] = biological target: T2, Ba/F3 cells EML4-ALK L1196M/G1202R (variant 1) (Homo sapiens, UniProt Q9UM73, G1202R/L1196M); assay: Ba/F3 cell proliferation assay, EML4-ALK L1196M/G1202R (variant 1); conditions: 72 hours, CellTiter-Glo
T2 construct: echinoderm microtubule-associated protein-like 4 (EML4) gene and the ALK tyrosine kinase domain; host or cells: Ba/F3 (RIKEN), retroviral pMSCV-puro; the other entry of the earlier key: EML4 (Q9HC35, Echinoderm microtubule-associated protein-like 4)
From the text: as §1, §2, §3, §4

[3] = biological target: T3, Ba/F3 cells CD74-ROS1 G2032R (Homo sapiens, UniProt P08922, G2032R); assay: Ba/F3 cell proliferation assay, CD74-ROS1 G2032R; conditions: 72 hours, CellTiter-Glo
T3 construct: fusion of the C-terminus of ROS1 with the N-terminus of various partner proteins; host or cells: Ba/F3 (RIKEN), retroviral pMSCV-puro; the other entry of the earlier key: CD74 (P04233, HLA class II histocompatibility antigen gamma chain)
Procedure: (§5) The virus was used to infect Ba/F3 cells (RIKEN) at multiplicity of infection=1 for 1 day. Infected cells were rescued in media (RPMI-1640 with 10% fetal bovine serum and 1% streptomycin and penicillin) supplemented with mouse IL-3 (10 ng/mL) for 2 days, and stable cell lines were selected by IL-3 withdrawal and puromycin (0.8 μg/mL) for 7 days. Monoclones were selected by single-cell dilution in IL-3-free medium containing puromycin (0.8 μg/mL).
as §2, §3, §4

[4] = test system: TPM3-NTRK1-wt IC50 / primary target IC50 (e.g. CD74-ROS1-wt); assay: TRKA selectivity in Ba/F3 cells (TRKA potency divided by primary target potency); conditions: for TPM3-NTRK1-wt/CD74-ROS1-G2032R selectivity ratio: TRKA potency / CD74-ROS1-G2032R potency; for TPM3-NTRK1-wt/CD74-ROS1-wt selectivity ratio: TRKA potency / CD74-ROS1-wt potency; for TPM3-NTRK1-wt/EML4-ALK-L1196M-G1202R selectivity ratio: TRKA potency / EML4-ALK-L1196M-G1202R potency; for TPM3-NTRK1-wt/EML4-ALK-wt selectivity ratio: TRKA potency / EML4-ALK-wt potency
Procedure: TRKA selectivity was calculated by dividing a compound's TRKA potency by its primary target potency (e.g. TPM3-NTRK1-wt IC50/CD74-ROS1-wt IC50). Compound selectivity can be interpreted by binning ratio values: bin A for very high selectivity, ratio >30-fold; bin B for high selectivity, ratio >10-fold; bin C for moderate selectivity, ratio ≥1; and bin D for low selectivity, ratio <1. […] (nd=not determined).

Ba/F3 cells TPM3-TRKA = biological target: T4, Ba/F3 cells TPM3-TRKA (Homo sapiens, UniProt P04629); assay: Ba/F3 cell proliferation assay, TPM3-TRKA; conditions: 72 hours, CellTiter-Glo, read-out: TPM3-NTRK1-wt IC50
T4 construct: host or cells: Ba/F3 (RIKEN), retroviral pMSCV-puro; the other entry of the earlier key: TPM3 (P06753, Tropomyosin alpha-3 chain)
From the text: as §1, §2, §3, §4

[5] = biological target: T5, Ba/F3 cells CD74-ROS1 wild-type (wt) (Homo sapiens, UniProt P08922); assay: Ba/F3 cell proliferation assay, CD74-ROS1 wild-type; conditions: 72 hours, CellTiter-Glo
T5 construct: fusion of the C-terminus of ROS1 with the N-terminus of various partner proteins; host or cells: Ba/F3 (RIKEN), retroviral pMSCV-puro; the other entry of the earlier key: CD74 (P04233, HLA class II histocompatibility antigen gamma chain)
Procedure: as §5, §2, §3, §4

T3 sequence (P08922 1883-2347 G2032R limits assumed): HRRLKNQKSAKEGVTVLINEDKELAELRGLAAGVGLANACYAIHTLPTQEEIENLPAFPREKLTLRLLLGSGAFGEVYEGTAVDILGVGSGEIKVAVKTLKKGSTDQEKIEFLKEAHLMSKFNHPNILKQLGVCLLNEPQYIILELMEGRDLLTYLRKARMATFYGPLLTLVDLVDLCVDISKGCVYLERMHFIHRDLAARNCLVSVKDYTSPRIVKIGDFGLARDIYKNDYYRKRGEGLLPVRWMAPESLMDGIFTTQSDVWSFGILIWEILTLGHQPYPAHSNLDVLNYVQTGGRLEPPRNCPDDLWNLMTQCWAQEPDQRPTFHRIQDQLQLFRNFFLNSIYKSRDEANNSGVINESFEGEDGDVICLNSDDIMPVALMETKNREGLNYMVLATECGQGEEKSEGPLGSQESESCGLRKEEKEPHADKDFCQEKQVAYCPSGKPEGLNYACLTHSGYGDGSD
T5 sequence (P08922 1883-2347 limits assumed): as the sequence (P08922 1883-2347 G2032R limits assumed) above, with R150G counted along it
T4 sequence (P04629 510-796 limits assumed): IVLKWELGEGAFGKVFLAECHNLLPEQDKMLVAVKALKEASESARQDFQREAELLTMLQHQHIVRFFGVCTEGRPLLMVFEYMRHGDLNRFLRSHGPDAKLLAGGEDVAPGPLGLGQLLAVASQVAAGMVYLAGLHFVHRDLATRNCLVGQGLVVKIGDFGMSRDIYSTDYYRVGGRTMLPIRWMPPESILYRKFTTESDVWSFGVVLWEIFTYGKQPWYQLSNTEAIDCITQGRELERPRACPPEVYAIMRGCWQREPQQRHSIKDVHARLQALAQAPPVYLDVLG
T2 sequence (Q9UM73 with tags, fused parts or gaps L1196M/G1202R): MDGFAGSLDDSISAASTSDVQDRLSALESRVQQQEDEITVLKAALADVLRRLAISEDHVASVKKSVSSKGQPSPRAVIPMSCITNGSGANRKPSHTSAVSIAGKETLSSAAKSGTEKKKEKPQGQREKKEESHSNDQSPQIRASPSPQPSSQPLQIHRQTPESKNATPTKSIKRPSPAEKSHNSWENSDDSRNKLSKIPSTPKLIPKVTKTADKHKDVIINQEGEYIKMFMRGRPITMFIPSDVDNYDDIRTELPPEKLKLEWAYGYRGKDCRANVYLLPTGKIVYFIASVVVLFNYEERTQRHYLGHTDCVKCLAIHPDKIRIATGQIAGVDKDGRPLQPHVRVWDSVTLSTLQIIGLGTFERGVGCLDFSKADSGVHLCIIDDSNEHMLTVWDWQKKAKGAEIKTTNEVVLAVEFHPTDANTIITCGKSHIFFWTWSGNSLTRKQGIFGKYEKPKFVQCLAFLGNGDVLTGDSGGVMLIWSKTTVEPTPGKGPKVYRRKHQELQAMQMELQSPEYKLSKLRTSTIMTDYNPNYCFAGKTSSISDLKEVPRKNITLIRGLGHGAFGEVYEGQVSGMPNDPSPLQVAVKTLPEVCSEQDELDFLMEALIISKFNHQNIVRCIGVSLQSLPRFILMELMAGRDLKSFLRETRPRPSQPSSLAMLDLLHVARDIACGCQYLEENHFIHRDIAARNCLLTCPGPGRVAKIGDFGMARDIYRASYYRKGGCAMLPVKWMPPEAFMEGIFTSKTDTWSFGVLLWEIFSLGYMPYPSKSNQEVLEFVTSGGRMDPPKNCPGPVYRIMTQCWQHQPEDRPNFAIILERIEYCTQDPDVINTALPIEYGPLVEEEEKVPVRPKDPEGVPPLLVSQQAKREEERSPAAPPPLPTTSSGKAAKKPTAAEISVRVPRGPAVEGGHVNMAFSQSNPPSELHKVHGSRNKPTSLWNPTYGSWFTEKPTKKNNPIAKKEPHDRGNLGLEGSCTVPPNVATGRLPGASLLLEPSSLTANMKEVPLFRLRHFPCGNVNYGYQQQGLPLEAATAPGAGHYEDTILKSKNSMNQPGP
T1 sequence (Q9UM73 with tags, fused parts or gaps): as the sequence (Q9UM73 with tags, fused parts or gaps L1196M/G1202R) above, with M635L, R641G counted along it

| SMILES | pIC50 [1] | pIC50 [2] | pIC50 [3] | TPM3-NTRK1-wt/CD74-ROS1-G2032R selectivity ratio [4] | TPM3-NTRK1-wt/CD74-ROS1-wt selectivity ratio [4] | TPM3-NTRK1-wt/EML4-ALK-L1196M-G1202R selectivity ratio [4] | TPM3-NTRK1-wt/EML4-ALK-wt selectivity ratio [4] | pIC50 (Ba/F3 cells TPM3-TRKA) | pIC50 [5] |
| --- | --- | --- | --- | --- | --- | --- | --- | --- | --- |
| C[C@H]1Oc2cc(cnc2N)-c2c(CC3CC3)noc2Cn2ncnc2-c2ccc(F)cc21 [Example 67, (19R)-3-(cyclopropylmethyl)-16-fluoro-19-methyl-5,20-dioxa-4,8,9,11,23-pentaazapentacyclo[19.3.1.0^2,^6.0^8,^12.0^13,^18]pentacosa-1(24),2(6),3,9,11,13,15,17,21(25),22-decaen-22-amine] | 7.30 to 10.00 | 6.30 to 7.30 | 7.30 to 10.00 | A (bin A for very high selectivity, ratio >30-fold) | A (bin A for very high selectivity, ratio >30-fold) | C (bin C for moderate selectivity, ratio ≥1) | A (bin A for very high selectivity, ratio >30-fold) | < 6.30 | 7.30 to 10.00 |
| C[C@H]1Oc2cc(cnc2N)-c2c(cnn2CC2CC2)Cc2nn(C(F)F)nc2-c2ccc(F)cc21 [Example 91, (19R)-3-(cyclopropylmethyl)-10-(difluoromethyl)-16-fluoro-19-methyl-20-oxa-3,4,9,10,11,23-hexaazapentacyclo[19,3.1.0^2,^6.0^8,^12.0^13,^18]pentacosa-1(24),2(6),4,8,11,13,15,17,21(25),22-decaen-22-amine] | 7.30 to 10.00 | 7.30 to 10.00 | 7.30 to 10.00 | A (bin A for very high selectivity, ratio >30-fold) | A (bin A for very high selectivity, ratio >30-fold) | B (bin B for high selectivity, ratio >10-fold) | A (bin A for very high selectivity, ratio >30-fold) | 6.30 to 7.30 | 7.30 to 10.00 |
| Cc1nn(CC2CC2)c2c1Cn1nc(Cl)cc1-c1ccc(F)cc1[C@@H](C)Oc1cc-2cnc1N [Example 81, (19R)-10-chloro-3-(cyclopropylmethyl)-16-fluoro-5,19-dimethyl-20-oxa-3,4,8,9,23-pentaazapentacyclo[19.3.1.0^2,^6.0^8,^12.0^13,^18]pentacosa-1(24),2(6),4,9,ll,13,15,17,21(25),22-decaen-22-amine] | 6.30 to 7.30 | < 6.30 | 7.30 to 10.00 | A (bin A for very high selectivity, ratio >30-fold) | A (bin A for very high selectivity, ratio >30-fold) | C (bin C for moderate selectivity, ratio ≥1) | A (bin A for very high selectivity, ratio >30-fold) | < 6.30 | 7.30 to 10.00 |
| CCn1ncc2c1-c1cnc(N)c(c1)OCc1cc(F)ccc1-c1ccnn1C2 [Example 17, 3-ethyl-16-fluoro-20-oxa-3,4,8,9,23-pentaazapentacyclo[19.3.1.0^2,^6.0^8,^12.0^13,^18]pentacosa-1(24),2(6),4,9,11,13,15,17,21(25),22-decaen-22-amine] | 6.30 to 7.30 | < 6.30 | 6.30 to 7.30 | A (bin A for very high selectivity, ratio >30-fold) | A (bin A for very high selectivity, ratio >30-fold) | C (bin C for moderate selectivity, ratio ≥1) | B (bin B for high selectivity, ratio >10-fold) | < 6.30 | 7.30 to 10.00 |
| CCn1ncc2c1-c1cnc(N)c(c1)O[C@H](C)c1cc(F)ccc1-c1cc(Br)nn1C2 [Example 94, (19R)-10-bromo-3-ethyl-16-fluoro-19-methyl-20-oxa-3,4,8,9,23-pentaazapentacyclo[19.3.1.0^2,^6.0^8,^12.0^13,^18]pentacosa-1(24),2(6),4,9,11,13,15,17,21(25),22-decaen-22-amine] | 7.30 to 10.00 | 6.30 to 7.30 | 7.30 to 10.00 | A (bin A for very high selectivity, ratio >30-fold) | A (bin A for very high selectivity, ratio >30-fold) | C (bin C for moderate selectivity, ratio ≥1) | B (bin B for high selectivity, ratio >10-fold) | 6.30 to 7.30 | 7.30 to 10.00 |
| Cc1nc2c(o1)-c1ccc(F)cc1C(C)Oc1cc(cnc1N)-c1c(c(Cl)nn1CC1CC1)C2 (stereo not drawn) [Example 93] | 6.30 to 7.30 | 6.30 to 7.30 | 7.30 to 10.00 | A (bin A for very high selectivity, ratio >30-fold) | A (bin A for very high selectivity, ratio >30-fold) | B (bin B for high selectivity, ratio >10-fold) | A (bin A for very high selectivity, ratio >30-fold) | < 6.30 | 7.30 to 10.00 |
| Cc1nc2c(o1)-c1ccc(F)cc1[C@@H](C)Oc1cc(cnc1N)-c1c(c(C)nn1CC1CC1)C2 [Example 78, (19R)-3-(cyclopropylmethyl)-16-fluoro-5,10,19-trimethyl-11,20-dioxa-3 ,4,9,23-tetraazapentacyclo[19.3.1.0^2,^6.0^8,^12.0^13,^18]pentacosa-1(24),2(6),4,8(12),9,13,15,17,21(25),22-decaen-22-amine] | 7.30 to 10.00 | 6.30 to 7.30 | 7.30 to 10.00 | A (bin A for very high selectivity, ratio >30-fold) | A (bin A for very high selectivity, ratio >30-fold) | A (bin A for very high selectivity, ratio >30-fold) | A (bin A for very high selectivity, ratio >30-fold) | < 6.30 | 7.30 to 10.00 |
